The text below walks through data of ChEMBL document CHEMBL1141995, “N-i-Propoxy-N-biphenylsulfonylaminobutylhydroxamic acids as potent and selective inhibitors of MMP-2 and MT1-MMP” (Bioorg Med Chem Lett, 2005).

Molecules are shown by their SMILES. A value given as a limit tells only on which side of the number the result lay.

For orientation: IC50 means the point on the concentration scale where inhibition reaches its midpoint. A higher IC50 goes with weaker potency.

In assay [1] the target is Matrix metalloproteinase-14 (Homo sapiens, UniProt P50281). Kind of assay: Inhibition of human matrix metalloprotease-14.
Assay [2] addresses Matrix metalloproteinase-9 (Homo sapiens, UniProt P14780). Kind of assay: Inhibition of human matrix metalloprotease-9.
For assay [3], the target named is 72 kDa type IV collagenase (Homo sapiens, UniProt P08253). Kind of assay: Inhibition of human matrix metalloprotease-2.
Assay [4] has as its target Stromelysin-1 (Homo sapiens, UniProt P08254). Kind of assay: Inhibition of human matrix metalloprotease-3.
Assay [5] deals with T1, Matrilysin (Homo sapiens, UniProt P09237).
T1 sequence (P09237 whole entry): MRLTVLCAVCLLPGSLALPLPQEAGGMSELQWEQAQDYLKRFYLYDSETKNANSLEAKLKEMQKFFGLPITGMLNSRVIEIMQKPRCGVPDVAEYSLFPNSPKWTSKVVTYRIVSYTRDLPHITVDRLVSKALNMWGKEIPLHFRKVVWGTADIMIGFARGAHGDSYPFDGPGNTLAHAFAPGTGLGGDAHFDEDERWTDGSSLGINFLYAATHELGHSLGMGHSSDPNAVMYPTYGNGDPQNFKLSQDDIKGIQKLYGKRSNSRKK
Kind of assay: Inhibition of human matrix metalloprotease-7.

Assay [6] addresses T2, Interstitial collagenase (Homo sapiens, UniProt P03956).
T2 sequence (P03956 whole entry): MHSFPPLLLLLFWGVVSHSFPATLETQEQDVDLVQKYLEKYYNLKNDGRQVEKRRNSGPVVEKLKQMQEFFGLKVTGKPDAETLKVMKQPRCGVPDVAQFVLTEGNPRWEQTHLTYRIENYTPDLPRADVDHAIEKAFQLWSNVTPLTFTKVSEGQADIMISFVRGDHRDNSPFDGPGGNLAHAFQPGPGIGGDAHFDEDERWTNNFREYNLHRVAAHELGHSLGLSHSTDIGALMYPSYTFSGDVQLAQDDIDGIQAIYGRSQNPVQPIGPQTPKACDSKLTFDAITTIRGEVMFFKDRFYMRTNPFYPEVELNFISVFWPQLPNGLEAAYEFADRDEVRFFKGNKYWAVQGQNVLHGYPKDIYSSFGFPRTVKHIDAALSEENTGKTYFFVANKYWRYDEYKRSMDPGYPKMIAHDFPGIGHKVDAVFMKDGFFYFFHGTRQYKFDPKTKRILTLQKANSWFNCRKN
Kind of assay: Inhibition of human matrix metalloprotease-1.

The target in assay [7] is Neutrophil collagenase (Homo sapiens, UniProt P22894). Kind of assay: Inhibition of human matrix metalloprotease-8.
Sequence of Neutrophil collagenase (P22894 whole entry): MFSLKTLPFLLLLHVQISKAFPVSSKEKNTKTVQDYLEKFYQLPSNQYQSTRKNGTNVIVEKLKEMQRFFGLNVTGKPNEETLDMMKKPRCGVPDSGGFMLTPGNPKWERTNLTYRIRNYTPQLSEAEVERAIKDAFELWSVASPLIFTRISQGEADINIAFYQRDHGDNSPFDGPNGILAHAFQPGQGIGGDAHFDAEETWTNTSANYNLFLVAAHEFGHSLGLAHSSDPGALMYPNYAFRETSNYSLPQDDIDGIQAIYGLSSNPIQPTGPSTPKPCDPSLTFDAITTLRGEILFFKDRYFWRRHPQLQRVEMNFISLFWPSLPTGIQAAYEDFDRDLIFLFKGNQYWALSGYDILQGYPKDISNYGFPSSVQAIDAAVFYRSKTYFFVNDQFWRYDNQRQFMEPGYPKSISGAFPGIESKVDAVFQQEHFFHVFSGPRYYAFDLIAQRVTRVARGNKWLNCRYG

Sequence of 72 kDa type IV collagenase (P08253 whole entry): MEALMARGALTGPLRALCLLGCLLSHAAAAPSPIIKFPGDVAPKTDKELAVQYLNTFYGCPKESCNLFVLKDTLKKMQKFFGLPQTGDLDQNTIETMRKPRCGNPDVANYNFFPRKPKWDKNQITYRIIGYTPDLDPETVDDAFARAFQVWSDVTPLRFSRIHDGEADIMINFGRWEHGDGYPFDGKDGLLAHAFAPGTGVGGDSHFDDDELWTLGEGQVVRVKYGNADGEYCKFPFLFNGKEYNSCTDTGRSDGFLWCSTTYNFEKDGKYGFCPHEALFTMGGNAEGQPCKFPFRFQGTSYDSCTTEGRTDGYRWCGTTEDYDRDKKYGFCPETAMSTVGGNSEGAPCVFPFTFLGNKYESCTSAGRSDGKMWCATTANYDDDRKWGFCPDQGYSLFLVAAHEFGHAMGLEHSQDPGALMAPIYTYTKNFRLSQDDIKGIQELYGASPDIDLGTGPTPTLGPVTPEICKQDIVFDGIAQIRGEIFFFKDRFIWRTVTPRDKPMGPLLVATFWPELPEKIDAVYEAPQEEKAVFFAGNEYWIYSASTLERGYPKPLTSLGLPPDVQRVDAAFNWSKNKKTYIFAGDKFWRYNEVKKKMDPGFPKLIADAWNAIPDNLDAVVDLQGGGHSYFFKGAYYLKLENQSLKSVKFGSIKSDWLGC
Sequence of Stromelysin-1 (P08254 whole entry): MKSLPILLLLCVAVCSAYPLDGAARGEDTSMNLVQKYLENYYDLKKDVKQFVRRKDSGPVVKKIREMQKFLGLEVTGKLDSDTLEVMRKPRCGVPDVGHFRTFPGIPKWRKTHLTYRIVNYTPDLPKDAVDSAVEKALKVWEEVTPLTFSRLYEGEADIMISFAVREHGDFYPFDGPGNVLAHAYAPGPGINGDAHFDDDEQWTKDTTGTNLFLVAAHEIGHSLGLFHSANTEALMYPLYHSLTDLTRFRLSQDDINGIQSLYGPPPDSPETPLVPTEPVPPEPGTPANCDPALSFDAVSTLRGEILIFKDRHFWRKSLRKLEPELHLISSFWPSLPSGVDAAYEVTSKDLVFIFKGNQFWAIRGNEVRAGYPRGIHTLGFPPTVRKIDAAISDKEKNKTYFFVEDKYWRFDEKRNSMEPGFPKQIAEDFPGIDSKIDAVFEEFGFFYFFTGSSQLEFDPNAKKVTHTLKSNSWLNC
Sequence of Matrix metalloproteinase-9 (P14780 whole entry): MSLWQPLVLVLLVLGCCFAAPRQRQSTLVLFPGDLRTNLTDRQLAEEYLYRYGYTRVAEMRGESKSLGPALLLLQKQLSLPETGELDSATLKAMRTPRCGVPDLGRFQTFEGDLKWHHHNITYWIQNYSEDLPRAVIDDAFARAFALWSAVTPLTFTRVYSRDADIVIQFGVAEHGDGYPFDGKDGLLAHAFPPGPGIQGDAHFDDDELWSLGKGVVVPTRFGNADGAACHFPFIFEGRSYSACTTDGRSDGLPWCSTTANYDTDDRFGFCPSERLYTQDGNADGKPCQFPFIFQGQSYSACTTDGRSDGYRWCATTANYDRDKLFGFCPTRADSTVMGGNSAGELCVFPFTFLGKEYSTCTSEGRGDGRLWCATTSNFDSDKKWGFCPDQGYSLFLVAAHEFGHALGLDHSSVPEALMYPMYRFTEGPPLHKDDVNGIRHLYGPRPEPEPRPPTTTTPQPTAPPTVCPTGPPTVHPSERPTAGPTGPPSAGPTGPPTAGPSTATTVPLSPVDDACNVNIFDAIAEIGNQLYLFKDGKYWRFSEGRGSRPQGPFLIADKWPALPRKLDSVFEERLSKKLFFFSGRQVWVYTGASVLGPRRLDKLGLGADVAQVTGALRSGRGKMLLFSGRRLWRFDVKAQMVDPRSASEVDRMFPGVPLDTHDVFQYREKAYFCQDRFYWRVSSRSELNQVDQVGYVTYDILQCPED

With `CC(C)ON([C@H](CCN)C(=O)NO)S(=O)(=O)c1ccc(-c2ccccc2)cc1`, the 50% inhibitory concentration (IC50) in assay [1] was above 300 nM; in assay [2], 4520 nM; in assay [3] it was 935 nM.

Take `CC(C)ON([C@H](CCNC(=O)OCc1ccccc1)C(=O)NO)S(=O)(=O)c1ccc(-c2ccccc2)cc1`: the IC50 in assay [4] was 130 nM; in assay [5], above 24400 nM; in assay [1], 7.7 nM; in assay [2], 16 nM; in assay [6], above 3000 nM; in assay [3], 0.41 nM.

With `CC(C)ON([C@@H](C(=O)NO)C(C)C)S(=O)(=O)c1ccc(-c2ccccc2)cc1`, the half-maximal inhibitory concentration (IC50) in assay [4] was 50 nM; in assay [5] it was above 11100 nM; in assay [7], 1.6 nM; in assay [1], 9.8 nM; in assay [2] it was 6.7 nM; in assay [3] it was 0.09 nM.

Turning to `COc1ccc(S(=O)(=O)N(Cc2cccnc2)[C@@H](C(=O)NO)C(C)C)cc1` [CGS-27023A], the results for the concentration for half-maximal inhibition (IC50) in assay [5] and in assay [1] were 100 nM and 8.9 nM, respectively.

As for `CC(C)ON(CC(=O)NO)S(=O)(=O)c1ccc(-c2ccccc2)cc1`, the IC50 in assay [4] is 4500 nM; in assay [5], above 50000 nM; in assay [1], above 10000 nM; in assay [2] it was 200 nM; in assay [6], above 50000 nM; in assay [3], 12 nM.

As for `CC1(C)SCCN(S(=O)(=O)c2ccc(Oc3ccncc3)cc2)[C@H]1C(=O)NO` [PRINOMASTAT], the IC50 in assay [5] worked out at 54 nM; in assay [1] it was 0.3 nM.

With `CC(C)ON(C(C(=O)NO)C(C)C)S(=O)(=O)c1ccc(-c2ccccc2)cc1` (racemic), the concentration for half-maximal inhibition (IC50) in assay [2] came out at 19.6 nM; in assay [3], 1.8 nM.

Turning to `CC(C)ON([C@H](C(=O)NO)C(C)C)S(=O)(=O)c1ccc(-c2ccccc2)cc1`, the values for the 50% inhibitory concentration (IC50) in assay [2] and in assay [3] were 13 nM and 10.3 nM, respectively.
